What was measured:
[1] = Remote loading of carfilzomib precipitate into liposomes (drug and lipid by HPLC after purification); type: physicochemical; conditions: for efficiency of remote loading: 100 g drug/mol HSPC
Procedure: Ammonium sulfate solution was prepared by dissolving ammonium sulfate solid to a final concentration of 250 mM (500 mequivilents of anion/L) no pH adjustment was made to yield a final pH of 5.6. Sodium sulfate solution (250 mM) was prepared by adding 0.35 g sodium sulfate to 10 mL deionized water.
The liposomes were formed by extrusion. Lipids were dissolved in ethanol at a concentration of 500 mM HSPC (591 mg/mL total lipid) at 65° C. and the 9 volumes of the trapping agent solution heated to 65° C. was added to the ethanol/lipid solution also at 65° C. The mixture was vortexed and transferred to a 10 mL thermostatically controlled (65° C.) Lipex Extruder. The liposomes were formed by extruding 10 times through polycarbonate membranes having 0.1 um pores. After extrusion the liposomes were cooled on ice. The transmembrane electrochemical gradient was formed by purification of the liposomes by dialysis in dialysis tubing having a molecular weight cut off of 12,000-14,000. The samples are dialyzed against 5 mM HEPES, 10% sucrose pH 6.5 (stirring at 4° C.) at volume that is 100 fold greater than the sample volume. The dialysate was changed after 2 h then 4 more times after 12 h each. The conductivity of the liposome solution was measured and was indistinguishable from the dialysis medium ˜40 μS/cm.
(§1) The lipid concentration is determined by measuring the cholesterol by HPLC using an Agilent 1100 HPLC with and Agilent Zorbax 5 um, […], Eclipse XDB-C8 column and a mobile phase of A=0.1% TFA, B=0.1% TFA/MeOH with an isocratic elution of 99% B. The flow rate is 1.0 mL/min, column temperature is 50° C., 10 μL injection and detection by absorbance at 205 nm. The retention time of cholesterol is 4.5 min. The liposome size is measured by dynamic light scattering.
Carfilzomib (Selleck Chemicals) was dissolved in DMSO at a concentration of 10 mg/mL. The carfilzomib was introduced to the liposomes at a carfilzomib to HSPC ratio of 100 g drug/mol HSPC (drug to total lipid ratio (wt/wt) of 0.12). The liposomes were diluted with 50 mM citrate, 10% sucrose pH 4.0 to increase the volume to a point where after addition of the drug the final DMSO concentration is 2%. The carfilzomib/DMSO was added to the diluted liposomes, which were mixed at room temperature then transferred to a 65° C. bath and swirled every 30 s for the first 3 min and then swirled every 5 min over a total heating time of 30 min. All samples were very cloudy when the drug was added and all became clear (same as liposomes with no drug added) after 15 min. After heating for 30 min all samples were placed on ice for 15 min. The loaded liposomes were vortexed and 100 μL of sample was kept as the “before column” and the rest transferred to microcentrifuge tubes and spun at 10,000 RPM for 5 min. The supernatants were purified on a Sephadex G25 column collected and analyzed by HPLC. The HPLC analysis of carfilzomib was performed on the same system as described for analysis of cholesterol. The mobile phase consists of A=0.1% TFA, B=0.1% TFA/MeOH with a gradient elution starting at 50% B and increasing to 83% B in 13 min with 7 min equilibration back to 50% B. The flow rate is 1.0 mL/min, column temperature is 30 C, 10 μl injection and detection by absorbance at 205 nm. The retention time of carfilzomib is 12.2 min. The lipid concentration is determined by analysis of the cholesterol by HPLC.

[2] = Liposome size by dynamic light scattering; type: physicochemical; conditions: liposomes loaded with carfilzomib, before lyophilizing
Procedure: as §1
See Example 1, Carfilzomib liposome entrapment by remote loading for details on how the liposomes were made, purified and characterized.

[3] = Remote loading of carfilzomib precipitate into liposomes (drug and lipid by HPLC after purification); type: physicochemical
[4] = unencapsulated drug; Yang et al 2011; cited from earlier work
[5] = 250 mM ammonium sulfate liposomes, drug added at 100 g drug/mol HSPC
[6] = 250 mM ammonium sulfate liposomes, drug added at 200 g drug/mol HSPC
[7] = input drug/HSPC 91.8 g/mol, [(NH4)2SO4] 250 mM
[8] = input drug/HSPC 167.3 g/mol, [(NH4)2SO4] 250 mM
[9] = input drug/HSPC 251.8 g/mol, [(NH4)2SO4] 250 mM
[10] = input drug/HSPC 338.1 g/mol, [(NH4)2SO4] 250 mM
[11] = input drug/HSPC 432.8 g/mol, [(NH4)2SO4] 250 mM
[12] = input drug/HSPC 450.6 g/mol, [(NH4)2SO4] 500 mM
[13] = input drug/HSPC 545.9 g/mol, [(NH4)2SO4] 500 mM
[14] = input drug/HSPC 639.2 g/mol, [(NH4)2SO4] 500 mM
[15] = input drug/HSPC 639.2 g/mol, [(NH4)2SO4] 500 mM, listed as Carfilzomib
[16] = input drug/HSPC 758.7 g/mol, [(NH4)2SO4] 500 mM
[17] = input drug/HSPC 758.7 g/mol, [(NH4)2SO4] 500 mM, listed as Carfilzomib
[18] = triethylammonium sulfate gradient, input 650 g drug/mol HSPC, at 30 min

CC(C)C[C@H](NC(=O)[C@H](CCc1ccccc1)NC(=O)CN1CCOCC1)C(=O)N[C@@H](Cc1ccccc1)C(=O)N[C@@H](CC(C)C)C(=O)[C@@]1(C)CO1 [carfilzomib]
efficiency of remote loading ([1]; 10 mg/mL DMSO solution added in 5 increments over 1 min while vortexing): 96.3%±1.09%
final drug to lipid ratio [1, 5]: 95.26±3.47 g drug/mol of HSPC
loading efficiency [1, 5]: 95.26±3.47%
final drug load ([1]; control liposomes with 250 mM sodium sulfate (no gradient), drug added at 100 g drug/mol HSPC): 33.28±0.79 g drug/mol of HSPC
loading capacity of remote loaded liposomes over sodium sulfate liposomes ([1]; input 100 g drug/mol HSPC): > 3 fold
efficiency of remote loading ([1]; trapping agent ammonium sulfate, 10 mg/mL DMSO solution added quickly): 97.0%±2.38%
PDI ([2]; (NH4)2SO4, drug added quickly): 0.062
Z-ave ([2]; (NH4)2SO4, drug added quickly): 108 nm
PDI ([2]; (NH4)2SO4, drug added slowly): 0.035
Z-ave ([2]; (NH4)2SO4, drug added slowly): 109.2 nm
PDI ([2]; Mellitic Acid): 0.08
Z-ave ([2]; Mellitic Acid): 105.5 nm
PDI ([2]; Napthelenedisulfonic acid): 0.039
Z-ave ([2]; Napthelenedisulfonic acid): 111.9 nm
final drug to lipid ratio [3, 6]: 136.9±7.35 g drug/mol of HSPC
loading efficiency [3, 6]: 67.94±3.67%
loading efficiency ([3]; DMSO 1% and above (up to 10% v/v), input 200 ug/umol, ammonium sulfate liposomes): 74-94%
loading ([3]; DMSO absent): practically no loading
final drug load ([3]; control liposomes with 250 mM sodium sulfate (no gradient), drug added at 200 g drug/mol HSPC): 29.01±0.79 g drug/mol of HSPC
effect of time between precipitate formation and loading on loading efficiency ([3]; delay up to 12 h): does not have a significant impact
efficiency of remote loading ([3]; drug added as solid powder, 65 C for 30 min, 100 g drug/mol HSPC): 3.88%±0.053%
efficiency of remote loading ([3]; drug added as solid powder, 65 C for 120 min, 100 g drug/mol HSPC): 3.47%±0.030%
Drug payload/carrier weight ratio [3, 7]: 0.07 g drug/g total lipid
Output drug/HSPC [3, 7]: 83.5 g/mol
efficiency [3, 7]: 90.9%
Drug payload/carrier weight ratio [3, 8]: 0.11 g drug/g total lipid
Output drug/HSPC [3, 8]: 127.2 g/mol
efficiency [3, 8]: 76.0%
Drug payload/carrier weight ratio [3, 9]: 0.15 g drug/g total lipid
Output drug/HSPC [3, 9]: 174.1 g/mol
efficiency [3, 9]: 69.1%
Drug payload/carrier weight ratio [3, 10]: 0.18 g drug/g total lipid
Output drug/HSPC [3, 10]: 210.7 g/mol
efficiency [3, 10]: 62.3%
Drug payload/carrier weight ratio [3, 11]: 0.20 g drug/g total lipid
Output drug/HSPC [3, 11]: 240.5 g/mol
efficiency [3, 11]: 55.6%
Drug payload/carrier weight ratio [3, 12]: 0.29 g drug/g total lipid
Output drug/HSPC [3, 12]: 345.2 g/mol
efficiency [3, 12]: 76.6%
Drug payload/carrier weight ratio [3, 13]: 0.32 g drug/g total lipid
Output drug/HSPC [3, 13]: 380.9 g/mol
efficiency [3, 13]: 69.8%
Drug payload/carrier weight ratio [3, 14]: 0.37 g drug/g total lipid
Output drug/HSPC [3, 14]: 440 ± 10.2 g/mol
efficiency [3, 14]: 68.7±4.80%
Output drug/HSPC [3, 15]: 438.9 g/mol
efficiency [3, 15]: 68.7%
Drug payload/carrier weight ratio [3, 16]: 0.4 g drug/g total lipid
Output drug/HSPC [3, 16]: 469 ± 4.9 g/mol
efficiency [3, 16]: 61.7±1.2%
Drug payload/carrier weight ratio [3, 17]: 0.40 g drug/g total lipid
Output drug/HSPC [3, 17]: 468.2 g/mol
efficiency [3, 17]: 61.7%
efficiency of remote loading ([3]; room temperature, 3 POPC/2 Chol/0.15 PEG-DSPE liposomes, 187 g drug/mol): 100.52%±1.01%
efficiency of remote loading ([3]; room temperature, 95 PChemsPC/5 PEG-DSPE liposomes, 100 g drug/mol PChemsPC): 95.5%±1.23%
efficiency of remote loading ([3]; trapping agent mellitic acid, 100 g drug/mol HSPC): 37.4%±2.01%
efficiency of remote loading ([3]; trapping agent napthelenedisulfonic acid, 100 g drug/mol HSPC): 95.1%±1.76%
efficiency [3, 18]: 65.9±1.98%
greatest payload achieved [3, 18]: 440±12.6 g drug/mol HSPC
t1/2 in the blood stream [4]: < 20 min
